Assays:
[1] = biological target: T1, sodium iodide symporter (wNIS) (Balaenoptera acutorostrata, UniProt A0A384B8D1); experiment: […]- uptake inhibition in transduced HeLa cells; assay type: cell-based
T1 construct: gene SLC5A5; N-terminally HA-tagged NIS (642 residues, XP_007195539.1) expressed in HeLa cells
T1 sequence (A0A384B8D1 1-642): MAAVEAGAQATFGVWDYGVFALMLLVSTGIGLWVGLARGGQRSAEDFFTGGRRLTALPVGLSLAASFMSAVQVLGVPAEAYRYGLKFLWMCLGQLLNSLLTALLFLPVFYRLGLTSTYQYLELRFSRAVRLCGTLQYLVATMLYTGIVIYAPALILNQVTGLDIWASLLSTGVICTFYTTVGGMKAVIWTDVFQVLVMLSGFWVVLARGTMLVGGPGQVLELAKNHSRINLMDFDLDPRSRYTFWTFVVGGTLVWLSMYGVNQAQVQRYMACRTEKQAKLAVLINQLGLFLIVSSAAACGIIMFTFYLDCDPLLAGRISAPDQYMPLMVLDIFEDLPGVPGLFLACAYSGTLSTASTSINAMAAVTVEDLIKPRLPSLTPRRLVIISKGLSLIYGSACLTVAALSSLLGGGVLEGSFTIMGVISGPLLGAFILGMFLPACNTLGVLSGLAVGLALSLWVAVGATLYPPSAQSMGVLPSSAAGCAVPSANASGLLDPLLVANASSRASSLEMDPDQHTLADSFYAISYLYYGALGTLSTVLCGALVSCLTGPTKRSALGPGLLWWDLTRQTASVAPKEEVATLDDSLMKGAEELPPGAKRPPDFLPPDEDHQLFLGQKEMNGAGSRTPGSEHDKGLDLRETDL

[2] = biological target: T2, sodium iodide symporter (hNIS) (Homo sapiens, UniProt Q92911); experiment: […]- uptake inhibition in transduced HeLa cells; assay type: cell-based
T2 construct: gene SLC5A5; N-terminally HA-tagged NIS (643 residues) expressed in HeLa cells
T2 sequence (Q92911 1-643): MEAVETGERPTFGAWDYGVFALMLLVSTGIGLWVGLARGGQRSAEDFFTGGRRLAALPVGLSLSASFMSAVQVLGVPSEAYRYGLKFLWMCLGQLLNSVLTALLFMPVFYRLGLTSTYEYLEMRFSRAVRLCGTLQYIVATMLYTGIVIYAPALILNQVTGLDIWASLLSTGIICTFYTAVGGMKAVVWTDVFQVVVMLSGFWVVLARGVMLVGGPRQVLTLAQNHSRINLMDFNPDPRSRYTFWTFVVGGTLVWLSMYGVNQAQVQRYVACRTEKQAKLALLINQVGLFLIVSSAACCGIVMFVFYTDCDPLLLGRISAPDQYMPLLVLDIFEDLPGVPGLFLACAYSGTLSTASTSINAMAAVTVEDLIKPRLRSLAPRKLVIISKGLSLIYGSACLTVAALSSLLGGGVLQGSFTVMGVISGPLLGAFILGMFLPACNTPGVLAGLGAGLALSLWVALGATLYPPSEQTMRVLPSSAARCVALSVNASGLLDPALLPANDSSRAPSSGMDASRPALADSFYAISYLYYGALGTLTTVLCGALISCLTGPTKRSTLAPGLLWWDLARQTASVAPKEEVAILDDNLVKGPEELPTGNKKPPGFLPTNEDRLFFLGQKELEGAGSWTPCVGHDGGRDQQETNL

[3] = biological target: T3, sodium iodide symporter (zNIS) (Danio rerio, UniProt A0AC58G7K6); experiment: […]- uptake inhibition in transduced HeLa cells; assay type: cell-based
T3 construct: gene slc5a5; N-terminally HA-tagged NIS (601 residues, NP_001082860.1) expressed in HeLa cells
T3 sequence (A0AC58G7K6 1-601): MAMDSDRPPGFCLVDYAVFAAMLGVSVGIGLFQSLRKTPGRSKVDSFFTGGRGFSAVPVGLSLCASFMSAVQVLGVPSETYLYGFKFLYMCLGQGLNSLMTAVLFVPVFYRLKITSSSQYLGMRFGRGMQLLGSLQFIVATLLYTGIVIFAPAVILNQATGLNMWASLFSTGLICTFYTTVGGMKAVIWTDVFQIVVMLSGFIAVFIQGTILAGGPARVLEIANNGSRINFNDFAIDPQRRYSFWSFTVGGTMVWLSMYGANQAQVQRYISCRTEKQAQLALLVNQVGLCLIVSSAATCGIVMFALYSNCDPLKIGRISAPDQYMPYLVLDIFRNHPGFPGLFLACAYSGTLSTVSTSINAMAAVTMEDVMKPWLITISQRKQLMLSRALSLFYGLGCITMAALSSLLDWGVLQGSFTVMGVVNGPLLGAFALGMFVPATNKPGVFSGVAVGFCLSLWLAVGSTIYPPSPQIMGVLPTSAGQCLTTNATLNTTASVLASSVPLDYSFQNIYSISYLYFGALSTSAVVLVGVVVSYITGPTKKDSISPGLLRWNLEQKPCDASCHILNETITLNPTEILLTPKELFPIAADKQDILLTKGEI

[4] = substrate: I; experiment: iodide uptake kinetics (Km) in transduced HeLa cells; assay type: cell-based, Homo sapiens; settings: Na+
[5] = substrate: I; experiment: as above; assay type: cell-based, Danio rerio; settings: Na+
Description: iodide uptake kinetics (Km) in transduced HeLa cells on sodium iodide symporter (zNIS) | zNIS binds to iodide with the greatest affinity of the proteins examined in this study

[6] = substrate: I; experiment: as above; assay type: cell-based, Balaenoptera acutorostrata; settings: Na+

[O-][Cl+3]([O-])([O-])O [perchlorate]
IC50 [1]: 4.6 µM | IC50 [2]: 1.57 µM | IC50 [3]: 0.081 µM

B1: sodium iodide symporter (hNIS) (Homo sapiens) (protein)
chain: MEAVETGERPTFGAWDYGVFALMLLVSTGIGLWVGLARGGQRSAEDFFTGGRRLAALPVGLSLSASFMSAVQVLGVPSEAYRYGLKFLWMCLGQLLNSVLTALLFMPVFYRLGLTSTYEYLEMRFSRAVRLCGTLQYIVATMLYTGIVIYAPALILNQVTGLDIWASLLSTGIICTFYTAVGGMKAVVWTDVFQVVVMLSGFWVVLARGVMLVGGPRQVLTLAQNHSRINLMDFNPDPRSRYTFWTFVVGGTLVWLSMYGVNQAQVQRYVACRTEKQAKLALLINQVGLFLIVSSAACCGIVMFVFYTDCDPLLLGRISAPDQYMPLLVLDIFEDLPGVPGLFLACAYSGTLSTASTSINAMAAVTVEDLIKPRLRSLAPRKLVIISKGLSLIYGSACLTVAALSSLLGGGVLQGSFTVMGVISGPLLGAFILGMFLPACNTPGVLAGLGAGLALSLWVALGATLYPPSEQTMRVLPSSAARCVALSVNASGLLDPALLPANDSSRAPSSGMDASRPALADSFYAISYLYYGALGTLTTVLCGALISCLTGPTKRSTLAPGLLWWDLARQTASVAPKEEVAILDDNLVKGPEELPTGNKKPPGFLPTNEDRLFFLGQKELEGAGSWTPCVGHDGGRDQQETNL
notes: N-terminally HA-tagged NIS (643 residues) expressed in HeLa cells
Km [4]: 12.01 µM

B2: sodium iodide symporter (zNIS) (Danio rerio) (protein)
chain: MAMDSDRPPGFCLVDYAVFAAMLGVSVGIGLFQSLRKTPGRSKVDSFFTGGRGFSAVPVGLSLCASFMSAVQVLGVPSETYLYGFKFLYMCLGQGLNSLMTAVLFVPVFYRLKITSSSQYLGMRFGRGMQLLGSLQFIVATLLYTGIVIFAPAVILNQATGLNMWASLFSTGLICTFYTTVGGMKAVIWTDVFQIVVMLSGFIAVFIQGTILAGGPARVLEIANNGSRINFNDFAIDPQRRYSFWSFTVGGTMVWLSMYGANQAQVQRYISCRTEKQAQLALLVNQVGLCLIVSSAATCGIVMFALYSNCDPLKIGRISAPDQYMPYLVLDIFRNHPGFPGLFLACAYSGTLSTVSTSINAMAAVTMEDVMKPWLITISQRKQLMLSRALSLFYGLGCITMAALSSLLDWGVLQGSFTVMGVVNGPLLGAFALGMFVPATNKPGVFSGVAVGFCLSLWLAVGSTIYPPSPQIMGVLPTSAGQCLTTNATLNTTASVLASSVPLDYSFQNIYSISYLYFGALSTSAVVLVGVVVSYITGPTKKDSISPGLLRWNLEQKPCDASCHILNETITLNPTEILLTPKELFPIAADKQDILLTKGEI
notes: N-terminally HA-tagged NIS (601 residues, NP_001082860.1) expressed in HeLa cells
Km [5]: 3.688 µM

B3: sodium iodide symporter (wNIS) (Balaenoptera acutorostrata) (protein)
chain: MAAVEAGAQATFGVWDYGVFALMLLVSTGIGLWVGLARGGQRSAEDFFTGGRRLTALPVGLSLAASFMSAVQVLGVPAEAYRYGLKFLWMCLGQLLNSLLTALLFLPVFYRLGLTSTYQYLELRFSRAVRLCGTLQYLVATMLYTGIVIYAPALILNQVTGLDIWASLLSTGVICTFYTTVGGMKAVIWTDVFQVLVMLSGFWVVLARGTMLVGGPGQVLELAKNHSRINLMDFDLDPRSRYTFWTFVVGGTLVWLSMYGVNQAQVQRYMACRTEKQAKLAVLINQLGLFLIVSSAAACGIIMFTFYLDCDPLLAGRISAPDQYMPLMVLDIFEDLPGVPGLFLACAYSGTLSTASTSINAMAAVTVEDLIKPRLPSLTPRRLVIISKGLSLIYGSACLTVAALSSLLGGGVLEGSFTIMGVISGPLLGAFILGMFLPACNTLGVLSGLAVGLALSLWVAVGATLYPPSAQSMGVLPSSAAGCAVPSANASGLLDPLLVANASSRASSLEMDPDQHTLADSFYAISYLYYGALGTLSTVLCGALVSCLTGPTKRSALGPGLLWWDLTRQTASVAPKEEVATLDDSLMKGAEELPPGAKRPPDFLPPDEDHQLFLGQKEMNGAGSRTPGSEHDKGLDLRETDL
notes: N-terminally HA-tagged NIS (642 residues, XP_007195539.1) expressed in HeLa cells
Km [6]: 30.04 µM
